Experimental data: patent US11214803B2, “Modulators of YAP1 expression” (Ionis Pharmaceuticals, Inc., priority 2019, dated 2022)
Strand notation (5' to 3'): a small letter for the sugar, then the base; units joined by * are phosphorothioate-linked, units joined directly phosphodiester-linked; [ ] holds rarer units or linkages, { } end groups; capitals alone tell only the bases. k = constrained ethyl (cEt); [5mC] = 5-methylcytosine; d = 2'-deoxy (DNA)

Test system: Yap1 mRNA
Assay: Dose-dependent inhibition of human Yap1 in A-431 cells (Example 8, 10,000 cells per well, RTS4814)
Format: cell-based
Conditions: free uptake, approximately 48 hours, RTS4814; for Yap1 mRNA, % UTC: A-431 cells, 10,000 cells per well; for IC50: A-431 cells, linear regression on log/linear plot
Experimental: Modified oligonucleotides described in the studies above were tested at various doses in A-431 cells. Cultured A-431 cells at a density of 10,000 cells per well were treated using free uptake with modified oligonucleotides diluted to concentrations described in the tables below. After approximately 48 hours, Yap1 mRNA levels were measured as previously described using the Human Yap1 primer-probe set RTS4814. Yap1 mRNA levels were normalized to total RNA content, as measured by RIBOGREEN®. Results are presented in the tables below as percent control of the amount of Yap1 mRNA relative to untreated control cells (% UTC). IC50s were calculated using a linear regression on a log/linear plot of the data in excel.

Row | Substance | Yap1 mRNA, % UTC (31.3 nM) [% UTC] | Yap1 mRNA, % UTC (125.0 nM) [% UTC] | Yap1 mRNA, % UTC (500.0 nM) [% UTC] | Yap1 mRNA, % UTC (2000.00 nM) [% UTC] | IC50 [nM]
1 | 1075819 (kG*kT*kA*dT*dA*dT*d[5mC]*d[5mC]*dG*dT*dT*d[5mC]*dT*k[5mC]*kA*kT; antisense) [compound 1075819] | 48 | 18 | 7 | 5 | < 20
2 | 1075778 (k[5mC]*kA*kT*dT*dT*dA*dT*dA*d[5mC]*d[5mC]*dA*dG*dG*k[5mC]*kA*k[5mC]; antisense) [compound 1075778] | 56 | 29 | 10 | 5 | 30
3 | 1075047 (antisense kT*kA*kA*dA*dA*dT*dT*dA*dG*dA*d[5mC]*dT*d[5mC]*k[5mC]*k[5mC]*k[5mC]) [compound 1075047] | 80 | 63 | 27 | 10 | 200
4 | 1076458 (k[5mC]*kT*kT*dA*dA*dT*dT*dA*dG*d[5mC]*d[5mC]*dT*d[5mC]*kA*kG*kT; antisense) [compound 1076458] | 88 | 52 | 23 | 10 | 200
5 | 1076486 (kG*kA*kA*dA*d[5mC]*dG*dA*dA*dA*d[5mC]*dG*dG*dG*kA*kA*kA; antisense) [compound 1076486] | 84 | 45 | 16 | 6 | 100
6 | 1075876 (antisense kG*kT*kA*dT*dT*dT*dA*dT*dG*dA*dT*dG*dA*kT*kT*k[5mC]) [compound 1075876] | 47 | 20 | 7 | 5 | < 20
7 | 1076448 (k[5mC]*kT*kT*dA*dT*dA*dA*dT*dG*d[5mC]*dA*dA*dT*k[5mC]*k[5mC]*kT; antisense) [compound 1076448] | 61 | 19 | 4 | 3 | < 20
8 | 1074850 (kT*kT*kG*dT*dT*dA*dT*dG*dA*dT*dA*dG*dG*k[5mC]*kA*k[5mC]; antisense) [compound 1074850] | 63 | 20 | 7 | 5 | 40
9 | 1076294 (kT*kA*kT*dA*dT*dT*dA*dG*dT*dG*d[5mC]*d[5mC]*d[5mC]*k[5mC]*k[5mC]*kT; antisense) [compound 1076294] | 76 | 50 | 21 | 11 | 100
10 | 1075813 (kA*k[5mC]*kT*dA*dA*dT*dA*dT*dG*d[5mC]*dA*dA*d[5mC]*kT*k[5mC]*kT; antisense) [compound 1075813] | 57 | 31 | 11 | 5 | 40
11 | 1075686 (kG*kT*kA*dA*dT*dT*dA*d[5mC]*dA*dG*dT*dG*dT*k[5mC]*kT*k[5mC]; antisense) [compound 1075686] | 72 | 44 | 18 | 14 | 100
12 | 1076326 (kG*k[5mC]*kT*dA*dA*dT*dA*dA*dT*dG*dG*dA*dA*kG*kA*kG; antisense) [compound 1076326] | 53 | 20 | 6 | 3 | < 20
13 | 1074723 (antisense kG*kG*kT*dA*dA*dA*dG*dG*dA*dA*dG*dA*dT*k[5mC]*kT*k[5mC]) [compound 1074723] | 56 | 24 | 11 | 8 | < 20
14 | 1074794 (k[5mC]*kA*kA*dA*dT*d[5mC]*dA*dA*dT*dG*dT*dG*d[5mC]*kT*k[5mC]*k[5mC]; antisense) [compound 1074794] | 56 | 23 | 10 | 6 | < 20
15 | 1075781 (k[5mC]*kA*kT*dA*dT*dA*dT*dT*dG*dT*dG*dA*d[5mC]*kT*kT*k[5mC]; antisense) [compound 1075781] | 52 | 15 | 4 | 3 | < 20
16 | 1075465 (antisense kG*kA*kT*dT*dT*dA*dT*dT*dG*dA*dA*d[5mC]*dT*kG*kA*kG) [compound 1075465] | 75 | 35 | 14 | 9 | 100
17 | 1076552 (kA*kT*kG*dT*dA*dT*dA*dA*dA*dT*dA*d[5mC]*d[5mC]*kA*kG*kG; antisense) [compound 1076552] | 73 | 40 | 17 | 12 | 100
18 | 1074595 (DNA kT*kA*kG*dA*dA*dG*dT*dA*dG*dG*dA*dG*d[5mC]*kA*kA*kG; antisense) [compound 1074595] | 67 | 21 | 8 | 4 | 40
19 | 1076516 (k[5mC]*kA*kT*dA*dA*dA*d[5mC]*dA*dT*dG*dA*dG*dT*kG*kG*kT; antisense) [compound 1076516] | 64 | 39 | 18 | 13 | 100
20 | 1074795 (k[5mC]*k[5mC]*kA*dA*dA*dT*d[5mC]*dA*dA*dT*dG*dT*dG*k[5mC]*kT*k[5mC]; antisense) [compound 1074795] | 38 | 14 | 7 | 5 | < 20
21 | 1076323 (k[5mC]*kA*kA*dT*dT*dT*dA*d[5mC]*dA*dA*dG*dT*dG*kA*kG*k[5mC]; antisense) [compound 1076323] | 41 | 35 | 13 | 5 | < 20
22 | 1074251 (antisense kT*k[5mC]*kT*dG*dA*dT*d[5mC]*dG*dA*dT*dG*dT*dG*kA*kT*kT) [compound 1074251] | 73 | 33 | 16 | 10 | 100
23 | 1075498 (k[5mC]*kA*kT*dT*dA*dT*dA*dT*dA*dA*dT*dG*d[5mC]*kA*kG*kG; antisense) [compound 1075498] | 82 | 40 | 21 | 16 | 100
